Values after ≈ are worked out from the molar mass of the structure shown. Values joined by “and” are separate entries in the source; they are usually repeats but may differ in a detail not shown here. Identical values can stand only once. Like-named read-outs stand apart in the source and are kept apart here.
Experiments:
[1] = Solubility of Form A in various solvents at 25° C. and 50° C.; type: physicochemical; details: thermodynamic from solid
Method: The solubility of Form A of Compound 1 was evaluated at 25° C. and 50° C. in various solvents.

[2] = pKa by iterative titration with 1M sodium hydroxide; type: physicochemical; details: free base form; for pKa: Measurements #1-#3
Method: The pKa of NRL-1049 in free base form was measured in triplicate by iterative titration with 1M sodium hydroxide solution. A plot of the pH versus the volume of the titrant was used to calculate the pKa, wherein the pKa was taken as 50% of the inflection point.

**Q.** For C[C@@H](N)C1CCN(S(=O)(=O)c2cccc3cnccc23)CC1 [NRL-1049 (R), (R)-1-(1-(isoquinolin-5-ylsulfonyl)piperidin-4-yl)ethan-1-amine], which solubility ([1]; 1,4-dioxane, 25 °C, organic solvent or mixture, read-out: Solubility at 25° C.) is on record?
**A.** 1500 µg/mL (≈ 4.7 mM)

**Q.** And the solubility ([1]; 1,4-dioxane, 50 °C, organic solvent or mixture, read-out: Solubility at 50° C.)?
**A.** 11900 µg/mL (≈ 37.3 mM)

**Q.** What about the solubility ([1]; 2-methoxyethanol, 25 °C, organic solvent or mixture, read-out: Solubility at 25° C.) of the same molecule?
**A.** > 50000 µg/mL

**Q.** And the solubility ([1]; 2-methoxyethanol, 50 °C, organic solvent or mixture, read-out: Solubility at 50° C.)?
**A.** > 50000 µg/mL

**Q.** And the solubility ([1]; acetone, 25 °C, organic solvent or mixture, read-out: Solubility at 25° C.)?
**A.** 15900 µg/mL (≈ 49.8 mM)

**Q.** And the solubility ([1]; acetone, 50 °C, organic solvent or mixture, read-out: Solubility at 50° C.)?
**A.** 45300 µg/mL (≈ 142 mM)

**Q.** And the solubility ([1]; acetonitrile, 25 °C, organic solvent or mixture, read-out: Solubility at 25° C.)?
**A.** < 1000 µg/mL

**Q.** What about the solubility ([1]; acetonitrile, 50 °C, organic solvent or mixture, read-out: Solubility at 50° C.) of the same molecule?
**A.** < 1000 µg/mL

**Q.** What about the solubility ([1]; benzyl alcohol, 25 °C, organic solvent or mixture, read-out: Solubility at 25° C.) of the same molecule?
**A.** 156000 µg/mL (≈ 488 mM)

**Q.** What about the solubility ([1]; chloroform, 25 °C, organic solvent or mixture, read-out: Solubility at 25° C.) of the same molecule?
**A.** > 50000 µg/mL

**Q.** And the solubility ([1]; chloroform, 50 °C, organic solvent or mixture, read-out: Solubility at 50° C.)?
**A.** > 50000 µg/mL

**Q.** What about the solubility ([1]; dichloromethane, 25 °C, organic solvent or mixture, read-out: Solubility at 25° C.) of the same molecule?
**A.** < 1000 µg/mL

**Q.** And the solubility ([1]; dichloromethane, 50 °C, organic solvent or mixture, read-out: Solubility at 50° C.)?
**A.** < 1000 µg/mL

**Q.** And the solubility ([1]; dimethyl sulfoxide, 25 °C, organic solvent or mixture, read-out: Solubility at 25° C.)?
**A.** > 50000 µg/mL

**Q.** And the solubility ([1]; dimethyl sulfoxide, 50 °C, organic solvent or mixture, read-out: Solubility at 50° C.)?
**A.** > 50000 µg/mL

**Q.** What about the solubility ([1]; dimethylformamide, 25 °C, organic solvent or mixture, read-out: Solubility at 25° C.) of the same molecule?
**A.** 39300 µg/mL (≈ 123 mM)

**Q.** And the solubility ([1]; dimethylformamide, 50 °C, organic solvent or mixture, read-out: Solubility at 50° C.)?
**A.** > 50000 µg/mL

**Q.** And the solubility ([1]; ethanol, 25 °C, organic solvent or mixture, read-out: Solubility at 25° C.)?
**A.** 12300 µg/mL (≈ 38.5 mM)

**Q.** And the solubility ([1]; ethanol, 50 °C, organic solvent or mixture, read-out: Solubility at 50° C.)?
**A.** 25300 µg/mL (≈ 79.2 mM)

**Q.** What about the solubility ([1]; ethyl acetate, 25 °C, organic solvent or mixture, read-out: Solubility at 25° C.) of the same molecule?
**A.** < 1000 µg/mL

**Q.** What about the solubility ([1]; ethyl acetate, 50 °C, organic solvent or mixture, read-out: Solubility at 50° C.) of the same molecule?
**A.** < 1000 µg/mL

**Q.** What about the solubility ([1]; ethyl formate, 25 °C, organic solvent or mixture, read-out: Solubility at 25° C.) of the same molecule?
**A.** 13700 µg/mL (≈ 42.9 mM)

**Q.** And the solubility ([1]; ethyl formate, 50 °C, organic solvent or mixture, read-out: Solubility at 50° C.)?
**A.** > 50000 µg/mL

**Q.** What about the solubility ([1]; iso-butyl acetate, 25 °C, organic solvent or mixture, read-out: Solubility at 25° C.) of the same molecule?
**A.** < 1000 µg/mL

**Q.** What about the solubility ([1]; iso-butyl acetate, 50 °C, organic solvent or mixture, read-out: Solubility at 50° C.) of the same molecule?
**A.** < 1000 µg/mL

**Q.** What about the solubility ([1]; iso-propanol, 25 °C, organic solvent or mixture, read-out: Solubility at 25° C.) of the same molecule?
**A.** 500 µg/mL (≈ 1.57 mM)

**Q.** And the solubility ([1]; iso-propanol, 50 °C, organic solvent or mixture, read-out: Solubility at 50° C.)?
**A.** 14700 µg/mL (≈ 46 mM)

**Q.** And the solubility ([1]; iso-propyl acetate, 25 °C, organic solvent or mixture, read-out: Solubility at 25° C.)?
**A.** < 1000 µg/mL

**Q.** What about the solubility ([1]; iso-propyl acetate, 50 °C, organic solvent or mixture, read-out: Solubility at 50° C.) of the same molecule?
**A.** < 1000 µg/mL

**Q.** What about the solubility ([1]; medium chain triglyceride, 25 °C, oil or lipid, read-out: Solubility at 25° C.) of the same molecule?
**A.** 100 µg/mL (≈ 0.313 mM)

**Q.** What about the solubility ([1]; methanol, 25 °C, organic solvent or mixture, read-out: Solubility at 25° C.) of the same molecule?
**A.** > 50000 µg/mL

**Q.** What about the solubility ([1]; methanol, 50 °C, organic solvent or mixture, read-out: Solubility at 50° C.) of the same molecule?
**A.** > 50000 µg/mL

**Q.** And the solubility ([1]; methyl ethyl ketone, 25 °C, organic solvent or mixture, read-out: Solubility at 25° C.)?
**A.** < 1000 µg/mL

**Q.** What about the solubility ([1]; methyl ethyl ketone, 50 °C, organic solvent or mixture, read-out: Solubility at 50° C.) of the same molecule?
**A.** 1500 µg/mL (≈ 4.7 mM)

**Q.** And the solubility ([1]; methyl iso-butyl ketone, 25 °C, organic solvent or mixture, read-out: Solubility at 25° C.)?
**A.** < 1000 µg/mL

**Q.** What about the solubility ([1]; methyl iso-butyl ketone, 50 °C, organic solvent or mixture, read-out: Solubility at 50° C.) of the same molecule?
**A.** < 1000 µg/mL

**Q.** And the solubility ([1]; n-butyl alcohol, 25 °C, organic solvent or mixture, read-out: Solubility at 25° C.)?
**A.** 1600 µg/mL (≈ 5.01 mM)

**Q.** And the solubility ([1]; n-butyl alcohol, 50 °C, organic solvent or mixture, read-out: Solubility at 50° C.)?
**A.** 7500 µg/mL (≈ 23.5 mM)

**Q.** And the solubility ([1]; n-propanol, 25 °C, organic solvent or mixture, read-out: Solubility at 25° C.)?
**A.** 1600 µg/mL (≈ 5.01 mM)

**Q.** What about the solubility ([1]; n-propanol, 50 °C, organic solvent or mixture, read-out: Solubility at 50° C.) of the same molecule?
**A.** 23400 µg/mL (≈ 73.3 mM)

**Q.** What about the solubility ([1]; o-xylene, 25 °C, organic solvent or mixture, read-out: Solubility at 25° C.) of the same molecule?
**A.** < 1000 µg/mL

**Q.** What about the solubility ([1]; o-xylene, 50 °C, organic solvent or mixture, read-out: Solubility at 50° C.) of the same molecule?
**A.** < 1000 µg/mL

**Q.** What about the solubility ([1]; polyethylene glycol 300, 25 °C, organic solvent or mixture, read-out: Solubility at 25° C.) of the same molecule?
**A.** 11000 µg/mL (≈ 34.4 mM)

**Q.** And the solubility ([1]; propylene glycol, 25 °C, organic solvent or mixture, read-out: Solubility at 25° C.)?
**A.** 84000 µg/mL (≈ 263 mM)

**Q.** What about the solubility ([1]; sesame oil, 25 °C, oil or lipid, read-out: Solubility at 25° C.) of the same molecule?
**A.** 40 µg/mL (≈ 0.125 mM)

**Q.** And the solubility ([1]; tert-butyl methyl ether, 25 °C, organic solvent or mixture, read-out: Solubility at 25° C.)?
**A.** < 1000 µg/mL

**Q.** What about the solubility ([1]; tert-butyl methyl ether, 50 °C, organic solvent or mixture, read-out: Solubility at 50° C.) of the same molecule?
**A.** < 1000 µg/mL

**Q.** And the solubility ([1]; tetrahydrofuran, 25 °C, organic solvent or mixture, read-out: Solubility at 25° C.)?
**A.** 1600 µg/mL (≈ 5.01 mM)

**Q.** What about the solubility ([1]; tetrahydrofuran, 50 °C, organic solvent or mixture, read-out: Solubility at 50° C.) of the same molecule?
**A.** 2000 µg/mL (≈ 6.26 mM)

**Q.** What about the solubility ([1]; toluene, 25 °C, organic solvent or mixture, read-out: Solubility at 25° C.) of the same molecule?
**A.** < 1000 µg/mL

**Q.** And the solubility ([1]; toluene, 50 °C, organic solvent or mixture, read-out: Solubility at 50° C.)?
**A.** < 1000 µg/mL

**Q.** And the solubility ([1]; water, 25 °C, water, read-out: Solubility at 25° C.)?
**A.** > 50000 µg/mL

**Q.** What about the solubility ([1]; water, 50 °C, water, read-out: Solubility at 50° C.) of the same molecule?
**A.** > 50000 µg/mL

**Q.** Which pKa average ([2]; Sample 1) does the source give for CC(N)C1CCN(S(=O)(=O)c2cccc3cnccc23)CC1 (stereo not shown) [NRL-1049] here?
**A.** 1.8

**Q.** And the pKa ([2]; Sample 1)?
**A.** 1.73 and 1.81 and 1.83

**Q.** And the pKa average ([2]; Sample 2)?
**A.** 2.0

**Q.** What about the pKa average ([2]; Sample 3) of the same molecule?
**A.** 1.9

**Q.** What about the pKa ([2]; Sample 3) of the same molecule?
**A.** 1.89 and 1.87 and 1.98
